Experimental findings from US11135234B2, “Effective aminoglycoside antibiotic for multidrug-resistant bacteria” (MICROBIAL CHEMISTRY RESEARCH FOUNDATION, priority 2015, dated 2021) are described below.

In one experiment the test system is P. aeruginosa MSC01035. Briefly: MIC, agar plate dilution method, P. aeruginosa MSC01035. To be noted: P. aeruginosa MSC01035, ABK-resistant; for MIC: Pseudomonas aeruginosa, read-out: minimal inhibitory concentration (MIC). In kind it is cell-based, Pseudomonas aeruginosa. Put shortly:
(§1)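 Read-out is the lowest compound concentration inhibiting growth (MIC, μg/mL), obtained by the agar plate dilution procedure of the Japan Society of Chemotherapy.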

In a further experiment the test system is S. aureus RN4220. Kind of experiment: MIC, agar plate dilution method, S. aureus RN4220. In kind it is cell-based, Staphylococcus aureus. To be noted: for MIC: Staphylococcus aureus, RN4220, S. aureus RN4220, Sensitive bacterium, read-out: minimal inhibitory concentration (MIC). A digest of the protocol:
as §1

The next experiment has as its system S. marcescens TH-0447. Kind of experiment: MIC, agar plate dilution method, S. marcescens TH-0447. In kind it is cell-based, Serratia marcescens. The settings on record: for MIC: Serratia marcescens, TH0447, S. marcescens TH-0447, AMK-resistant, read-out: minimal inhibitory concentration (MIC). A digest of the protocol: as §1
The subject of a further experiment is P. aeruginosa MSC17707. Briefly: MIC, agar plate dilution method, P. aeruginosa MSC17707. In kind it is cell-based, Pseudomonas aeruginosa. The settings on record: for MIC: Pseudomonas aeruginosa, MSC17707, P. aeruginosa MSC17707, AMK-resistant, read-out: minimal inhibitory concentration (MIC). A digest of the protocol:
as §1

For the next experiment, the system named is S. aureus RN4220/pMS520. Kind of experiment: MIC, agar plate dilution method, S. aureus RN4220/pMS520. The settings on record: for MIC: Staphylococcus aureus, MRSA, read-out: minimal inhibitory concentration (MIC), S. aureus RN4220/pMS520, MRSA. In kind it is cell-based, Staphylococcus aureus. Put shortly:
as §1

In the next experiment the test system is S. aureus MF490. Briefly: MIC, agar plate dilution method, S. aureus MF490. In kind it is cell-based, Staphylococcus aureus. To be noted: for MIC: Staphylococcus aureus, MRSA, read-out: minimal inhibitory concentration (MIC). A digest of the protocol:
as §1

For another experiment, the system named is E. faecium ATCC19434. Kind of experiment: MIC, agar plate dilution method, E. faecium ATCC19434. To be noted: for MIC: Enterococcus faecium, ATCC19434, E. faecium ATCC19434, read-out: minimal inhibitory concentration (MIC). In kind it is cell-based, Enterococcus faecium. A digest of the protocol: as §1
A further experiment deals with P. aeruginosa PAO1/GN315. Briefly: MIC, agar plate dilution method, P. aeruginosa PAO1/GN315. To be noted: for MIC: Pseudomonas aeruginosa, read-out: minimal inhibitory concentration (MIC), P. aeruginosa PAO1/GN315, AMK-resistant. In kind it is cell-based, Pseudomonas aeruginosa. Put shortly:
as §1

In a further experiment the test system is P. aeruginosa PAO1. Kind of experiment: MIC, agar plate dilution method, P. aeruginosa PAO1. Type of experiment: cell-based, Pseudomonas aeruginosa. The settings on record: for MIC: Pseudomonas aeruginosa, PAO1, P. aeruginosa PAO1, Sensitive bacterium, read-out: minimal inhibitory concentration (MIC). A digest of the protocol: as §1
The subject of another experiment is S. marcescens GN6944. Briefly: MIC, agar plate dilution method, S. marcescens GN6944. Type of experiment: cell-based, Serratia marcescens. To be noted: S. marcescens GN6944, GM-resistant; for MIC: Serratia marcescens, read-out: minimal inhibitory concentration (MIC). Put shortly:
as §1

Experiment [1] relates to K. pneumoniae ATCC BAA-2146. Kind of experiment: MIC, agar plate dilution method, K. pneumoniae ATCC BAA-2146. In kind it is cell-based, Klebsiella pneumoniae. To be noted: for MIC: Klebsiella pneumoniae, ATCCBAA2146, K. pneumoniae ATCC BAA-2146, NDM-producing strain, read-out: minimal inhibitory concentration (MIC). Put shortly:
as §1

A further experiment has as its system E. coli JM109/pMW218. Briefly: MIC, agar plate dilution method, E. coli JM109/pMW218. Type of experiment: cell-based, Escherichia coli. To be noted: for MIC: Escherichia coli, JM109/PMW218, E. coli JM109/pMW218, Sensitive bacterium, read-out: minimal inhibitory concentration (MIC). A digest of the protocol:
as §1

In experiment [2] the test system is K. pneumoniae ATCC BAA-1705. Briefly: MIC, agar plate dilution method, K. pneumoniae ATCC BAA-1705. In kind it is cell-based, Klebsiella pneumoniae. The settings on record: for MIC: Klebsiella pneumoniae, ATCCBAA1705, K. pneumoniae ATCC BAA-1705, KPC-producing strain, read-out: minimal inhibitory concentration (MIC). Put shortly:
as §1

Experiment [3] deals with A. baumannii ATCC BAA-1710. Briefly: MIC, agar plate dilution method, A. baumannii ATCC BAA-1710. The settings on record: for MIC: Acinetobacter baumannii, ATCCBAA1710, A. baumannii ATCC BAA-1710, MDRA, read-out: minimal inhibitory concentration (MIC). Type of experiment: cell-based, Acinetobacter baumannii. Put shortly:
as §1

In brackets after ≈: the same amount, converted by molar mass.

As to `CNC1C(O[C@H]2OC(CO)[C@@H](NC(=O)CCN)[C@H](O)C2O)O[C@H]2C[C@H](N)[C@@H](O[C@@H]3C(N)C[C@@H](N)C[C@H]3O)OC2C1O` (stereo partly drawn) [Compound V1-q, 4″-N-(β-alanyl)-6-deoxy-5-epiapramycin], the MIC with P. aeruginosa MSC01035 came out at 4 µg/mL (≈ 6.73 µM); with S. aureus RN4220, 1 µg/mL (≈ 1.68 µM); with S. marcescens TH-0447 it was 8 µg/mL (≈ 13.5 µM); in the experiment on P. aeruginosa MSC17707, 2 µg/mL (≈ 3.36 µM); in the experiment with S. aureus RN4220/pMS520 it was 1 µg/mL (≈ 1.68 µM); in the experiment on S. aureus MF490 it was 4 µg/mL (≈ 6.73 µM). Besides, the MIC was determined as 8 µg/mL (≈ 13.5 µM) in the experiment on E. faecium ATCC19434; 4 µg/mL (≈ 6.73 µM) in the experiment on P. aeruginosa PAO1/GN315; 2 µg/mL (≈ 3.36 µM) in the experiment on P. aeruginosa PAO1; 4 µg/mL (≈ 6.73 µM) with S. marcescens GN6944; 1 µg/mL (≈ 1.68 µM) in experiment [1]; 1 µg/mL (≈ 1.68 µM) in the experiment with E. coli JM109/pMW218. For the same molecule, the values for the MIC in experiment [2] and in experiment [3] were 1 µg/mL (≈ 1.68 µM) and 4 µg/mL (≈ 6.73 µM), respectively.
On to `CNC1C(O[C@H]2OC(CO)[C@@H](NC(=O)[C@@H](O)CN)[C@H](O)C2O)O[C@H]2C[C@H](N)[C@@H](O[C@@H]3C(N)C[C@@H](N)C[C@H]3O)OC2C1O` (stereo partly drawn) [Compound V1-r, 6-deoxy-5-epi-4″-N-(L-isoseryl)apramycin], for which the MIC with P. aeruginosa MSC01035 worked out at 4 µg/mL (≈ 6.55 µM); with S. aureus RN4220, 1 µg/mL (≈ 1.64 µM); in the experiment with S. marcescens TH-0447, 8 µg/mL (≈ 13.1 µM); in the experiment on P. aeruginosa MSC17707, 2 µg/mL (≈ 3.28 µM); with S. aureus RN4220/pMS520, 1 µg/mL (≈ 1.64 µM); in the experiment with S. aureus MF490, 4 µg/mL (≈ 6.55 µM). Also, the MIC in the experiment with E. faecium ATCC19434 is 8 µg/mL (≈ 13.1 µM); in the experiment with P. aeruginosa PAO1/GN315, 2 µg/mL (≈ 3.28 µM); in the experiment with P. aeruginosa PAO1 it was 2 µg/mL (≈ 3.28 µM); in the experiment on S. marcescens GN6944, 8 µg/mL (≈ 13.1 µM); in experiment [1] it was 1 µg/mL (≈ 1.64 µM); in the experiment with E. coli JM109/pMW218, 0.5 µg/mL (≈ 0.819 µM). Also, the values for the MIC in experiment [2] and in [3] were 1 µg/mL (≈ 1.64 µM) and 4 µg/mL (≈ 6.55 µM), respectively.
`CNC1C(O[C@H]2OC(CO)[C@@H](NC(=O)[C@H](O)CN)[C@H](O)C2O)O[C@H]2C[C@H](N)[C@@H](O[C@@H]3C(N)C[C@@H](N)C(O)[C@H]3O)OC2C1O` (stereo partly drawn) [Compound V1-s, 5-epi-4″-N-(D-isoseryl)apramycin]: the MIC in the experiment on P. aeruginosa MSC01035 worked out at 4 µg/mL (≈ 6.38 µM); in the experiment with S. aureus RN4220, 1 µg/mL (≈ 1.6 µM); with S. marcescens TH-0447 it was 8 µg/mL (≈ 12.8 µM); in the experiment on P. aeruginosa MSC17707, 2 µg/mL (≈ 3.19 µM); in the experiment with S. aureus RN4220/pMS520, 1 µg/mL (≈ 1.6 µM); in the experiment with S. aureus MF490 it was 4 µg/mL (≈ 6.38 µM). In addition, the MIC in the experiment on E. faecium ATCC19434 was determined as 16 µg/mL (≈ 25.5 µM); in the experiment on P. aeruginosa PAO1/GN315, 2 µg/mL (≈ 3.19 µM); with P. aeruginosa PAO1 it was 1 µg/mL (≈ 1.6 µM); in the experiment on S. marcescens GN6944 it was 4 µg/mL (≈ 6.38 µM); in experiment [1], 1 µg/mL (≈ 1.6 µM); in the experiment on E. coli JM109/pMW218, 0.5 µg/mL (≈ 0.798 µM). The MIC was 0.5 µg/mL (≈ 0.798 µM) in experiment [2] and 4 µg/mL (≈ 6.38 µM) in [3].
As for `CNC1C(OC2OC(CO)C(NC(=N)N)C(O)C2O)OC2CC(N)C(OC3C(N)CC(N)C(O)C3N)OC2C1O` (stereo not drawn) [Compound W2-a, 5-amino-4″-deamino-5-deoxy-5-epi-4″-guanidinoapramycin], the “minimal inhibitory concentration (MIC)” value in the experiment on P. aeruginosa MSC01035 is 4 µg/mL (≈ 6.89 µM); in the experiment with S. aureus RN4220 (S. aureus RN4220, Sensitive bacterium), 1 µg/mL (≈ 1.72 µM); in the experiment with S. marcescens TH-0447 (S. marcescens TH-0447, AMK-resistant), 4 µg/mL (≈ 6.89 µM); with P. aeruginosa MSC17707 (P. aeruginosa MSC17707, AMK-resistant) it was 8 µg/mL (≈ 13.8 µM); with S. aureus RN4220/pMS520 (S. aureus RN4220/pMS520, MRSA) it was 1 µg/mL (≈ 1.72 µM); in the experiment with S. aureus MF490 (S. aureus MF490, MRSA) it was 4 µg/mL (≈ 6.89 µM). For the same molecule, the “minimal inhibitory concentration (MIC)” value is 8 µg/mL (≈ 13.8 µM) with E. faecium ATCC19434 (E. faecium ATCC19434); 4 µg/mL (≈ 6.89 µM) in the experiment with P. aeruginosa PAO1/GN315 (P. aeruginosa PAO1/GN315, AMK-resistant); 4 µg/mL (≈ 6.89 µM) in the experiment with P. aeruginosa PAO1 (P. aeruginosa PAO1, Sensitive bacterium); 4 µg/mL (≈ 6.89 µM) in the experiment with S. marcescens GN6944; 1 µg/mL (≈ 1.72 µM) in experiment [1] (K. pneumoniae ATCC BAA-2146, NDM-producing strain); 1 µg/mL (≈ 1.72 µM) with E. coli JM109/pMW218 (E. coli JM109/pMW218, Sensitive bacterium). Also, the “minimal inhibitory concentration (MIC)” value in [2] (K. pneumoniae ATCC BAA-1705, KPC-producing strain) was determined as 1 µg/mL (≈ 1.72 µM); in [3] (A. baumannii ATCC BAA-1710, MDRA) it was 8 µg/mL (≈ 13.8 µM).
As to `CNC1C(O[C@H]2OC(CO)[C@@H](NC(=O)CN)[C@H](O)C2O)O[C@H]2C[C@H](N)[C@@H](O[C@@H]3C(N)C[C@@H](N)C(O)[C@H]3N)OC2C1O` (stereo partly drawn) [Compound W2-b, 5-amino-5-deoxy-5-epi-4″-N-glycylapramycin], the MIC with P. aeruginosa MSC01035 was 4 µg/mL (≈ 6.72 µM); in the experiment on S. aureus RN4220 it was 4 µg/mL (≈ 6.72 µM); in the experiment with S. marcescens TH-0447, 16 µg/mL (≈ 26.9 µM); with P. aeruginosa MSC17707, 4 µg/mL (≈ 6.72 µM); with S. aureus RN4220/pMS520, 2 µg/mL (≈ 3.36 µM); in the experiment on S. aureus MF490 it was 16 µg/mL (≈ 26.9 µM). The MIC in the experiment with E. faecium ATCC19434 stood at 32 µg/mL (≈ 53.7 µM); in the experiment with P. aeruginosa PAO1/GN315, 4 µg/mL (≈ 6.72 µM); with P. aeruginosa PAO1, 2 µg/mL (≈ 3.36 µM); in the experiment with S. marcescens GN6944, 8 µg/mL (≈ 13.4 µM); in experiment [1], 2 µg/mL (≈ 3.36 µM); with E. coli JM109/pMW218 it was 1 µg/mL (≈ 1.68 µM). In addition, the results for the MIC in experiment [2] and in experiment [3] were 2 µg/mL (≈ 3.36 µM) and 8 µg/mL (≈ 13.4 µM), respectively.
